Experimental data taken from the supplement of paper PMC11061612.

Experiments:
Test in all cases: combination Emax (second highest fraction inhibited in the dose matrix, 72 h); higher = more inhibition; extreme values may be limits of the assay
[1] = system: NCI-H3118 (Head and Neck Carcinoma)
In short: (§1)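 Cell lines in DMEM/F12 or RPMI with 10% FBS were plated in 1536-well plates, held 24 hours at 37°C, 5% CO2, then given two-drug dose matrices for 72 hours (DMSO typically 0.2%). Viability was read by CellTiter-Glo 2.0 luminescence and scaled as inhibition from 0 (vehicle wells) to 1 (blank wells). Combination Emax is the second-highest inhibition in the matrix; Bliss excess is observed combination effect minus expected EA + EB − EA·EB, EA and EB being single-agent effects.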

GAK (Melanoma) = system: GAK (Melanoma)
In short: as §1

[2] = system: MM1S (Plasma Cell Myeloma)
In short: as §1

T47D (Breast Carcinoma) = system: T47D (Breast Carcinoma)
In short: as §1

NCI-H2373 (Mesothelioma) = system: NCI-H2373 (Mesothelioma)
In short: as §1

[3] = system: NCI-H596 (Other Solid Carcinomas)
In short: as §1

[4] = system: SNU-423 (Hepatocellular Carcinoma)
In short: as §1

NB1 (Neuroblastoma) = system: NB1 (Neuroblastoma)
In short: as §1

[5] = system: NAMALWA (Burkitt's Lymphoma)
In short: as §1

[6] = system: SCC-4 (Oral Cavity Carcinoma)
In short: as §1

AM-38 (Glioblastoma) = system: AM-38 (Glioblastoma)
In short: as §1

[7] = system: Raji (Burkitt's Lymphoma)
In short: as §1

[8] = system: PL4 (Pancreatic Carcinoma)
In short: as §1

[9] = system: LCLC-103H (Non-Small Cell Lung Carcinoma)
In short: as §1

[10] = system: KP-4 (Pancreatic Carcinoma)
In short: as §1

[11] = system: MS-1 (Small Cell Lung Carcinoma)
In short: as §1

[12] = system: RCC-JW (Kidney Carcinoma)
In short: as §1

[13] = system: SK-CO-1 (Colorectal Carcinoma)
In short: as §1

[14] = system: SiHa (Cervical Carcinoma)
In short: as §1

[15] = system: T84 (Colorectal Carcinoma)
In short: as §1

SMILES | combination Emax [1] | combination Emax (GAK (Melanoma)) | combination Emax [2] | combination Emax (T47D (Breast Carcinoma)) | combination Emax (NCI-H2373 (Mesothelioma)) | combination Emax [3] | combination Emax [4] | combination Emax (NB1 (Neuroblastoma)) | combination Emax [5] | combination Emax [6] | combination Emax (AM-38 (Glioblastoma)) | combination Emax [7] | combination Emax [8] | combination Emax [9] | combination Emax [10] | combination Emax [11] | combination Emax [12] | combination Emax [13] | combination Emax [14] | combination Emax [15]
CN(C)CCCOc1ccc(-c2ccc3ncc4c(c3c2)n(C2CCOCC2)c(=O)n4C)cn1 [AZD0156] + C=CCn1c(=O)c2cnc(Nc3ccc(N4CCN(C)CC4)cc3)nc2n1-c1cccc(C(C)(C)O)n1 [AZD1775] (first compound max 1 µM, partner max 1 µM) | 0.842 | 0.745 | 0.732 | 0.343 | 0.408 | 0.307 | 0.506 | 0.936 | 0.974 | 0.526 | 0.437 | 0.695 | 0.445 | 0.519 | 0.571 | 0.877 | 0.221 | 0.562 | 0.143 | 0.556
CN(C)CCCOc1ccc(-c2ccc3ncc4c(c3c2)n(C2CCOCC2)c(=O)n4C)cn1 [AZD0156] + CCN(CCO)CCCOc1ccc2c(Nc3cc(CC(=O)Nc4cccc(F)c4)[nH]n3)ncnc2c1 [AZD2811] (first compound max 1 µM, 7x7, partner max 1 µM) | 0.0407 | 0.198 | 0.34 | 0.282 | 0.354 | 0.207 | 0.194 | 0.641 | 0.402 | 0.336 | 0.342 | 0.165 | 0.256 | 0.29 | 0.327 | 0.224 | 0.093 | 0.798 | 0.135 | 0.023
CN(C)CCCOc1ccc(-c2ccc3ncc4c(c3c2)n(C2CCOCC2)c(=O)n4C)cn1 [AZD0156] + C[C@@H]1COCCN1C2=NC(=NC(=C2)C3(CC3)[S@](=N)(=O)C)C4=C5C=CNC5=NC=C4 [AZD6738] (first compound max 1 µM, 7x7, partner max 10 µM) | 0.672 | 0.703 | 0.698 | 0.282 | 0.588 | 0.454 | 0.495 | 0.933 | 0.96 | 0.702 | 0.868 | 0.87 | 0.718 | 0.55 | 0.451 | 0.873 | 0.597 | 0.721 | 0.234 | 0.668
CN(C)CCCOc1ccc(-c2ccc3ncc4c(c3c2)n(C2CCOCC2)c(=O)n4C)cn1 [AZD0156] + O=C(c1cc(Cc2n[nH]c(=O)c3ccccc23)ccc1F)N1CCN(C(=O)C2CC2)CC1 [Olaparib] (first compound max 3 µM, partner max 3 µM) | 0.305 | 0.193 | 0.881 | 0.366 | 0.359 | 0.41 | 0.293 | 0.357 | 0.487 | 0.164 | 0.45 | 0.482 | 0.34 | 0.289 | 0.287 | 0.438 | 0.468 | 0.608 | 0.261 | 0.353
C=CCn1c(=O)c2cnc(Nc3ccc(N4CCN(C)CC4)cc3)nc2n1-c1cccc(C(C)(C)O)n1 [AZD1775] + C1CN(CCC1(C(=O)N[C@@H](CCO)C2=CC=C(C=C2)Cl)N)C3=NC=NC4=C3C=CN4 [Capivasertib] (first compound max 3 µM, partner max 3 µM) | 0.947 | 0.73 | 1 | 0.555 | 0.54 | 0.708 | 0.659 | 0.69 | 0.981 | 0.505 | 0.702 | 0.977 | 0.737 | 0.626 | 0.787 | 0.911 | 0.619 | 0.691 | 0.505 | 0.785
C=CCn1c(=O)c2cnc(Nc3ccc(N4CCN(C)CC4)cc3)nc2n1-c1cccc(C(C)(C)O)n1 [AZD1775] + C[C@@H]1COCCN1C2=NC(=NC(=C2)C3(CC3)[S@](=N)(=O)C)C4=C5C=CNC5=NC=C4 [AZD6738] (first compound max 1 µM, partner max 10 µM) | 0.855 | 0.821 |  | 0.412 | 0.608 | 0.663 | 0.747 | 0.944 | 0.961 | 0.763 | 0.818 | 0.937 | 0.738 | 0.752 |  | 0.983 | 0.725 | 0.738 | 0.371 | 0.817
